From ChEMBL document CHEMBL1201862, “PubChem BioAssay data set” (2004)
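Five compound concentrations were applied to cells in 96-well plates for 48 hours; endpoints were derived by simple linear interpolation of the resulting dose-response curve. GI50 is the concentration that inhibits growth by half.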 Activity calls are given as the source filed them. Rule as the data show it: active = GI50 up to about 1.1 µM and inactive = higher.

Legend:
Assay in all cases: growth of human tumour cells (NCI), 48 h
SK-OV-3 = tested on: SK-OV-3
SK-MEL-28 = tested on: SK-MEL-28
UO-31 = tested on: UO-31
HT-29 = tested on: HT-29
SK-MEL-2 = tested on: SK-MEL-2
DU-145 = tested on: DU-145
CCRF-CEM = tested on: CCRF-CEM
SF-539 = tested on: SF-539
OVCAR-5 = tested on: OVCAR-5
SR = tested on: SR
SF-295 = tested on: SF-295
HCT-116 = tested on: HCT-116
CAKI-1 = tested on: CAKI-1
OVCAR-3 = tested on: OVCAR-3
PC-3 = tested on: PC-3
OVCAR-4 = tested on: OVCAR-4
EKVX = tested on: EKVX
SW-620 = tested on: SW-620
OVCAR-8 = tested on: OVCAR-8
T47D = tested on: T47D

Row | Compound | GI50 (SK-OV-3) | GI50 (SK-MEL-28) | GI50 (UO-31) | GI50 (HT-29) | GI50 (SK-MEL-2) | GI50 (DU-145) | GI50 (CCRF-CEM) | GI50 (SF-539) | GI50 (OVCAR-5) | GI50 (SR) | GI50 (SF-295) | GI50 (HCT-116) | GI50 (CAKI-1) | GI50 (OVCAR-3) | GI50 (PC-3) | GI50 (OVCAR-4) | GI50 (EKVX) | GI50 (SW-620) | GI50 (OVCAR-8) | GI50 (T47D)
1 | O=C1C=C(NCCc2ccccc2)c2ccccc2C1=O | 13.9 µM (inactive) | 1.87 µM (inactive) | 3.72 µM (inactive) | 3.49 µM (inactive) | 1.91 µM (inactive) | 1.75 µM (inactive) | 12.3 µM (inactive) | 2.19 µM (inactive) | 1.98 µM (inactive) | 5.94 µM (inactive) | 1.98 µM (inactive) | 4.95 µM (inactive) | 9.48 µM (inactive) | 1.44 µM (inactive) | 5.25 µM (inactive) | 3.93 µM (inactive) | 5.78 µM (inactive) | 1.85 µM (inactive) | 6.38 µM (inactive) | 16.7 µM (inactive)
2 | COc1cc2c(NCCCCCO)ncnc2c(OC)c1OC | > 100 µM (inactive) | > 100 µM (inactive) | > 85.9 µM (inactive) | > 100 µM (inactive) | > 100 µM (inactive) | > 100 µM (inactive) | > 93.3 µM (inactive) | > 100 µM (inactive) | > 100 µM (inactive) | > 87.9 µM (inactive) | > 100 µM (inactive) | > 100 µM (inactive) | > 100 µM (inactive) | > 100 µM (inactive) | > 100 µM (inactive) | > 100 µM (inactive) | > 100 µM (inactive) | > 100 µM (inactive) | > 100 µM (inactive) | > 96.2 µM (inactive)
3 | C=CCN1CCC(c2cc(C(=O)OCC)[nH]c2-c2cc(C)no2)C1=O (stereo not given) | > 100 µM (inactive) | > 100 µM (inactive) | > 100 µM (inactive) | > 100 µM (inactive) | > 100 µM (inactive) | > 100 µM (inactive) | > 100 µM (inactive) | > 100 µM (inactive) | > 100 µM (inactive) | 43.8 µM (inactive) | > 100 µM (inactive) | > 100 µM (inactive) | > 100 µM (inactive) | > 100 µM (inactive) | > 100 µM (inactive) | > 100 µM (inactive) | > 100 µM (inactive) | > 100 µM (inactive) | > 100 µM (inactive) | > 100 µM (inactive)
4 | CSC(=N\c1ccccc1)/N=C(\SCc1ccccc1)N(C)C | 3.24 µM (inactive) | 0.581 µM (active) | 1.46 µM (inactive) | 0.288 µM (active) | 1.87 µM (inactive) | 0.9 µM (active) | 0.27 µM (active) | 1.28 µM (inactive) | 1.49 µM (inactive) | 0.16 µM (active) | 1.43 µM (inactive) | 0.292 µM (active) | 0.927 µM (active) | 0.869 µM (active) | 1.29 µM (inactive) | 0.889 µM (active) | 1.63 µM (inactive) | 0.312 µM (active) | 1.2 µM (inactive) | 0.427 µM (active)
5 | O=P(Nc1ccccc1)(Oc1ccccc1)N1CCN(c2ccccc2)CC1 (stereo not given) | 16.8 µM (inactive) | 19.7 µM (inactive) | 14.9 µM (inactive) | 15.8 µM (inactive) | 20.9 µM (inactive) | 19.6 µM (inactive) | 26.3 µM (inactive) | 19.5 µM (inactive) | 17.9 µM (inactive) | 34.4 µM (inactive) | 18.4 µM (inactive) | 16.8 µM (inactive) | 24.8 µM (inactive) | 18.7 µM (inactive) | 18.1 µM (inactive) | 25.5 µM (inactive) | 17.4 µM (inactive) | 25.4 µM (inactive) | 21.9 µM (inactive) | 22.6 µM (inactive)
6 | COc1ccc(C2C(C)C(=O)C(C)C(c3ccc(OC)cc3)N2N=O)cc1 (stereo not given) | 257 µM (inactive) | > 640 µM (inactive) | 495 µM (inactive) | > 738 µM (inactive) | 215 µM (inactive) | 213 µM (inactive) | > 700 µM (inactive) | > 75.5 µM (inactive) | 393 µM (inactive) | > 685 µM (inactive) | 126 µM (inactive) | 127 µM (inactive) | 246 µM (inactive) | 454 µM (inactive) | 253 µM (inactive) | > 479 µM (inactive) | > 830 µM (inactive) | > 1000 µM (inactive) | 340 µM (inactive) | 127 µM (inactive)
7 | C=CCc1cc(-c2cc(CC=C)c(O)c(CN(CC)CC)c2)cc(CN(CC)CC)c1O | > 100 µM (inactive) | 28.6 µM (inactive) | 15.2 µM (inactive) | 15.7 µM (inactive) | 26.9 µM (inactive) | > 100 µM (inactive) | 28.6 µM (inactive) | 21.4 µM (inactive) | 18.8 µM (inactive) | 13.5 µM (inactive) | 33 µM (inactive) | 22 µM (inactive) | 50.2 µM (inactive) | 64 µM (inactive) | 40.2 µM (inactive) | > 100 µM (inactive) | > 80.9 µM (inactive) | 25.5 µM (inactive) | > 96.6 µM (inactive) | 43 µM (inactive)
8 | CC(c1ccccc1)n1c2ccccc2c2c(N)ncnc21 (stereo not given) | 14.2 µM (inactive) | 17.9 µM (inactive) | 9.16 µM (inactive) | 17.3 µM (inactive) | 23.7 µM (inactive) | 18.6 µM (inactive) | 27.8 µM (inactive) | 17.1 µM (inactive) | 18.2 µM (inactive) | 24.7 µM (inactive) | 17 µM (inactive) | 21.5 µM (inactive) | 16.1 µM (inactive) | 16.2 µM (inactive) | 17.7 µM (inactive) | 13.6 µM (inactive) | 10.8 µM (inactive) | 22.6 µM (inactive) | 17.1 µM (inactive) | 15.5 µM (inactive)
9 | c1sc(NC2=NCCO2)c2c1CCCC2 | > 100 µM (inactive) | > 100 µM (inactive) | > 100 µM (inactive) | > 100 µM (inactive) | > 100 µM (inactive) | > 100 µM (inactive) | > 100 µM (inactive) | > 100 µM (inactive) | > 100 µM (inactive) | > 100 µM (inactive) | > 100 µM (inactive) | > 100 µM (inactive) | > 100 µM (inactive) | > 100 µM (inactive) | 99.8 µM (inactive) | > 100 µM (inactive) | > 100 µM (inactive) | > 100 µM (inactive) | > 100 µM (inactive) | 88.1 µM (inactive)
10 | COc1c2occc2c(OC)c2c(=O)c(S(=O)(=O)NC(=O)Nc3ccc(Cl)cc3)coc12 | > 10 µM (inactive) | > 10 µM (inactive) | > 10 µM (inactive) | > 10 µM (inactive) | > 10 µM (inactive) | > 10 µM (inactive) | > 10 µM (inactive) | > 10 µM (inactive) | > 10 µM (inactive) | > 10 µM (inactive) | > 10 µM (inactive) | > 10 µM (inactive) | > 10 µM (inactive) | > 10 µM (inactive) | > 10 µM (inactive) | > 10 µM (inactive) | > 10 µM (inactive) | > 10 µM (inactive) | > 10 µM (inactive) | > 10 µM (inactive)
